# Source: patent US12220440B2, “Drug composition, method for treating infection, disinfecting composition, and drug adjuvant” (priority 2022, dated 2025)
# Where two headings read alike, the source gives them in different places. Peptide text beside a SMILES is read from it.
# Legend:
# Assay type in all cases: cell-based
# [1] = test system: E. coli (colistin-resistant); assay: MIC, colistin-resistant E. coli clinical isolates, with and without otilonium bromide; settings: Escherichia coli
# [2] = test system: mcr-1-bearing E. coli J53; assay: SYTOX Green membrane permeability staining; settings: each drug individually
# Text: SYTOX™ Green (available from ThermoFisher Scientific) staining analysis assesses the membrane permeability of colistin-resistant E. coli before and after treatment with the colistin and otilonium bromide combination. SYTOX Green is a green-fluorescent nucleotide dye used to test membrane permeability and membrane integrity. Green fluorescence is detected by fluorescence spectrometer when bacterial cell integrity is destroyed and membrane permeability increases.
# [3] = test system: P. aeruginosa PAO1 and PAERC 11.603; assay: Divalent ion MIC-dependency in supplemented MHB
# Procedure: In FIGS. 5e and 5f, colistin MICs of P. aeruginosa PAO1 and PAERC 11.603, respectively, are determined in MHB supplemented with different Ca^2+ ion concentrations.
# Accordingly, it is believed that the addition of a chelant; or a chelant for divalent ions; or a divalent cation chelant, may further improve the activity of the drug formulation, method of use/treatment, disinfection composition, etc. of the present invention.
# [4] = test system: mcr-1-bearing E. coli; settings: colistin 32 μg/ml for 24 hours; initial ~10^8 CFU/mL in saline
# Procedure: Starvation-induced bacterial sub-population tolerant cells of colistin-resistant and colistin-susceptible E. coli and A. baumannii strains are tested against the bactericidal effect of the combination of otilonium bromide and colistin. […] The incubation temperature is 37° C. Ob and colistin are added at the same time.
smiles,measurement,setting,value
"CCC(C)CCCC(=O)N[C@@H](CCN)C(=O)N[C@H](C(=O)N[C@@H](CCN)C(=O)N[C@H]1CCNC(=O)[C@H]([C@@H](C)O)NC(=O)[C@H](CCN)NC(=O)[C@H](CCN)NC(=O)[C@H](CC(C)C)NC(=O)[C@@H](CC(C)C)NC(=O)[C@H](CCN)NC1=O)[C@@H](C)O (stereo partly drawn) [Colistin] (HELM PEPTIDE1{[CCC(C)CCCC(=O)[*:2]].[Dab].T.[Dab].[Dab].[Dab].[dL].L.[Dab].[Dab].T}$PEPTIDE1,PEPTIDE1,5:R3-11:R2$$$V2.0)",MIC,"[1]; E. coli 101, colistin-resistant, colistin alone, read-out: Colistin MIC, Colistin",8 µg/mL
same,MIC,"[1]; E. coli 101, colistin-resistant, in the presence of 10 ug/ml Ob, read-out: Colistin MIC, Colistin + 10 ug/ml Ob",4 µg/mL
same,MIC,"[1]; E. coli 101, colistin-resistant, in the presence of 20 ug/ml Ob, read-out: Colistin MIC, Colistin + 20 ug/ml Ob",1 µg/mL
same,MIC,"[1]; E. coli 119, colistin-resistant, colistin alone, read-out: Colistin MIC, Colistin",16 µg/mL
same,MIC,"[1]; E. coli 119, colistin-resistant, in the presence of 10 ug/ml Ob, read-out: Colistin MIC, Colistin + 10 ug/ml Ob",4 µg/mL
same,MIC,"[1]; E. coli 119, colistin-resistant, in the presence of 20 ug/ml Ob, read-out: Colistin MIC, Colistin + 20 ug/ml Ob",2 µg/mL
same,MIC,"[1]; E. coli 812, colistin-resistant, colistin alone, read-out: Colistin MIC, Colistin",16 µg/mL
same,MIC,"[1]; E. coli 812, colistin-resistant, in the presence of 10 ug/ml Ob, read-out: Colistin MIC, Colistin + 10 ug/ml Ob",4 µg/mL
same,MIC,"[1]; E. coli 812, colistin-resistant, in the presence of 20 ug/ml Ob, read-out: Colistin MIC, Colistin + 20 ug/ml Ob",1 µg/mL
same,MIC,"[1]; E. coli 2016.2.5 1149-1, colistin-resistant, colistin alone, read-out: Colistin MIC, Colistin",8 µg/mL
same,MIC,"[1]; E. coli 2016.2.5 1149-1, colistin-resistant, in the presence of 10 ug/ml Ob, read-out: Colistin MIC, Colistin + 10 ug/ml Ob",4 µg/mL
same,MIC,"[1]; E. coli 2016.2.5 1149-1, colistin-resistant, in the presence of 20 ug/ml Ob, read-out: Colistin MIC, Colistin + 20 ug/ml Ob",1 µg/mL
same,MIC,"[1]; E. coli 34650, colistin-resistant, colistin alone, read-out: Colistin MIC, Colistin",8 µg/mL
same,MIC,"[1]; E. coli 34650, colistin-resistant, in the presence of 10 ug/ml Ob, read-out: Colistin MIC, Colistin + 10 ug/ml Ob",2 µg/mL
same,MIC,"[1]; E. coli 34650, colistin-resistant, in the presence of 20 ug/ml Ob, read-out: Colistin MIC, Colistin + 20 ug/ml Ob",0.5 µg/mL
same,MIC,"[1]; E. coli CX48, colistin-resistant, colistin alone, read-out: Colistin MIC, Colistin",8 µg/mL
same,MIC,"[1]; E. coli CX48, colistin-resistant, in the presence of 10 ug/ml Ob, read-out: Colistin MIC, Colistin + 10 ug/ml Ob",4 µg/mL
same,MIC,"[1]; E. coli CX48, colistin-resistant, in the presence of 20 ug/ml Ob, read-out: Colistin MIC, Colistin + 20 ug/ml Ob",1 µg/mL
same,MIC,"[1]; E. coli CX53, colistin-resistant, colistin alone, read-out: Colistin MIC, Colistin",8 µg/mL
same,MIC,"[1]; E. coli CX53, colistin-resistant, in the presence of 10 ug/ml Ob, read-out: Colistin MIC, Colistin + 10 ug/ml Ob",4 µg/mL
same,MIC,"[1]; E. coli CX53, colistin-resistant, in the presence of 20 ug/ml Ob, read-out: Colistin MIC, Colistin + 20 ug/ml Ob",2 µg/mL
same,MIC,"[1]; E. coli CX116, colistin-resistant, colistin alone, read-out: Colistin MIC, Colistin",2 µg/mL
same,MIC,"[1]; E. coli CX116, colistin-resistant, in the presence of 10 ug/ml Ob, read-out: Colistin MIC, Colistin + 10 ug/ml Ob",≤ 0.25 µg/mL
same,MIC,"[1]; E. coli CX116, colistin-resistant, in the presence of 20 ug/ml Ob, read-out: Colistin MIC, Colistin + 20 ug/ml Ob",≤ 0.25 µg/mL
same,MIC,"[1]; E. coli WZ2431, colistin-resistant, colistin alone, read-out: Colistin MIC, Colistin",8 µg/mL
same,MIC,"[1]; E. coli WZ2431, colistin-resistant, in the presence of 10 ug/ml Ob, read-out: Colistin MIC, Colistin + 10 ug/ml Ob",2 µg/mL
same,MIC,"[1]; E. coli WZ2431, colistin-resistant, in the presence of 20 ug/ml Ob, read-out: Colistin MIC, Colistin + 20 ug/ml Ob",0.5 µg/mL
same,MIC,"[1]; E. coli WZ2909, colistin-resistant, colistin alone, read-out: Colistin MIC, Colistin",16 µg/mL
same,MIC,"[1]; E. coli WZ2909, colistin-resistant, in the presence of 10 ug/ml Ob, read-out: Colistin MIC, Colistin + 10 ug/ml Ob",8 µg/mL
same,MIC,"[1]; E. coli WZ2909, colistin-resistant, in the presence of 20 ug/ml Ob, read-out: Colistin MIC, Colistin + 20 ug/ml Ob",1 µg/mL
same,MIC,"[1]; E. coli WZ3903, colistin-resistant, colistin alone, read-out: Colistin MIC, Colistin",4 µg/mL
same,MIC,"[1]; E. coli WZ3903, colistin-resistant, in the presence of 10 ug/ml Ob, read-out: Colistin MIC, Colistin + 10 ug/ml Ob",≤ 0.25 µg/mL
same,MIC,"[1]; E. coli WZ3903, colistin-resistant, in the presence of 20 ug/ml Ob, read-out: Colistin MIC, Colistin + 20 ug/ml Ob",≤ 0.25 µg/mL
same,MIC,"[1]; E. coli WZ3906, colistin-resistant, colistin alone, read-out: Colistin MIC, Colistin",8 µg/mL
same,MIC,"[1]; E. coli WZ3906, colistin-resistant, in the presence of 10 ug/ml Ob, read-out: Colistin MIC, Colistin + 10 ug/ml Ob",4 µg/mL
same,MIC,"[1]; E. coli WZ3906, colistin-resistant, in the presence of 20 ug/ml Ob, read-out: Colistin MIC, Colistin + 20 ug/ml Ob",1 µg/mL
same,MIC,"[1]; E. coli WZ3920, colistin-resistant, colistin alone, read-out: Colistin MIC, Colistin",4 µg/mL
same,MIC,"[1]; E. coli WZ3920, colistin-resistant, in the presence of 10 ug/ml Ob, read-out: Colistin MIC, Colistin + 10 ug/ml Ob",2 µg/mL
same,MIC,"[1]; E. coli WZ3920, colistin-resistant, in the presence of 20 ug/ml Ob, read-out: Colistin MIC, Colistin + 20 ug/ml Ob",≤ 0.25 µg/mL
same,MIC,"[1]; E. coli WZ3951, colistin-resistant, colistin alone, read-out: Colistin MIC, Colistin",16 µg/mL
same,MIC,"[1]; E. coli WZ3951, colistin-resistant, in the presence of 10 ug/ml Ob, read-out: Colistin MIC, Colistin + 10 ug/ml Ob",8 µg/mL
same,MIC,"[1]; E. coli WZ3951, colistin-resistant, in the presence of 20 ug/ml Ob, read-out: Colistin MIC, Colistin + 20 ug/ml Ob",2 µg/mL
same,MIC,"[1]; E. coli WZ3955, colistin-resistant, colistin alone, read-out: Colistin MIC, Colistin",8 µg/mL
same,MIC,"[1]; E. coli WZ3955, colistin-resistant, in the presence of 10 ug/ml Ob, read-out: Colistin MIC, Colistin + 10 ug/ml Ob",4 µg/mL
same,MIC,"[1]; E. coli WZ3955, colistin-resistant, in the presence of 20 ug/ml Ob, read-out: Colistin MIC, Colistin + 20 ug/ml Ob",1 µg/mL
same,MIC,"[1]; E. coli X2169, colistin-resistant, colistin alone, read-out: Colistin MIC, Colistin",16 µg/mL
same,MIC,"[1]; E. coli X2169, colistin-resistant, in the presence of 10 ug/ml Ob, read-out: Colistin MIC, Colistin + 10 ug/ml Ob",4 µg/mL
same,MIC,"[1]; E. coli X2169, colistin-resistant, in the presence of 20 ug/ml Ob, read-out: Colistin MIC, Colistin + 20 ug/ml Ob",2 µg/mL
same,SYTOX Green fluorescence (membrane permeability),[2],significant increase in fluorescence
same,effect of supplemented Ca2+ and Mg2+ on MIC,[3],increase the MIC
same,size of the viable tolerant population,[4],5*10^5 CFU/ml
